Data reported in patent publication US8614214B2, “Pyrazole amide compounds and uses thereof” (Sinochem Corporation, priority 2010, dated 2013).
Where two headings read alike, the source gives them in different places.

Assays:
corn rust = experiment: Greenhouse pot seedling assay, corn rust; type: in vivo; settings: for control of corn rust: greenhouse; for Control (%): comparative test, Table 20
wheat powdery mildew = experiment: Greenhouse pot seedling assay, wheat powdery mildew; type: in vivo; settings: 400 ppm; for control of wheat powdery mildew: greenhouse
rice blast [1] = type: cell-based
cucumber downy mildew [2] = experiment: Greenhouse pot seedling assay, cucumber downy mildew; type: in vivo; settings: for control of cucumber downy mildew: greenhouse; for Control (%): comparative test, Table 18
cucumber downy mildew [3] = experiment: Field trial against cucumber downy mildew; type: in vivo; settings: for Control (%) average: average of 3 replicates; for Control (%) I: replicate I; for Control (%) II: replicate II; for Control (%) III: replicate III
Method: The trial was carried out in a greenhouse in July 2011 in […] district, Shanxi Province. Before the treatment, the cucumber plants were at the beginning of infection. The trial method was based on the National Standard of the People's Republic of China-“Pesticide-Guidelines for The Field Efficacy Trials”. […] The Area of plot was 15 m^2, random arrangement and 3 times replication. The volume was about 600 L/hm^2, and water was as the control. Efficacy calculation method is as follows: [formula] [formula]

sigatoka = type: cell-based
banana anthracnose = type: cell-based
rice sheath blight = type: cell-based
[4] = test system: corn southern leaf blight; type: cell-based
rice blast [5] = type: in vivo
mango anthracnose = type: cell-based
cucumber downy mildew [6] = experiment: Persistence comparative test against cucumber downy mildew (greenhouse); type: in vivo

Question: For CCc1nn(C)c(C(=O)NCc2ccc(OCC(=O)Nc3ccccc3C(=O)NC)cc2)c1Cl [Compound 16], which “control of corn rust” value (corn rust; 400 ppm) is on record?
Answer: 100%

Question: And the “control of wheat powdery mildew” value (wheat powdery mildew)?
Answer: 100%

Question: And the “inhibition ratio on spore germination of rice blast” value (“inhibition ratio” for short) (rice blast [1]; 25 ppm, in vitro)?
Answer: 100%

Question: What about the melting point of the same molecule?
Answer: 160 to 161 °C

Question: What about the “control of cucumber downy mildew” value (cucumber downy mildew [2]; 25 ppm) of the same molecule?
Answer: 100%

Question: And the “control of cucumber downy mildew” value (cucumber downy mildew [2]; 50 ppm)?
Answer: 100%

Question: What about the “control of cucumber downy mildew” value (cucumber downy mildew [2]; 400 ppm) of the same molecule?
Answer: 100%

Question: Which “Control (%) average” value (cucumber downy mildew [3]; 100 ppm) does the source give for CNC(=O)c1ccccc1NC(=O)COc1ccc(CNC(=O)c2c(Cl)c(C)nn2C)cc1 [Compound 15] here?
Answer: 52%

Question: And the “Control (%) I” value (cucumber downy mildew [3]; 100 ppm)?
Answer: 33%

Question: What about the “Control (%) II” value (cucumber downy mildew [3]; 100 ppm) of the same molecule?
Answer: 53%

Question: What about the “Control (%) III” value (cucumber downy mildew [3]; 100 ppm) of the same molecule?
Answer: 69%

Question: What about the “Control (%) average” value (cucumber downy mildew [3]; 200 ppm) of the same molecule?
Answer: 66%

Question: What about the “Control (%) I” value (cucumber downy mildew [3]; 200 ppm) of the same molecule?
Answer: 60%

Question: And the “Control (%) II” value (cucumber downy mildew [3]; 200 ppm)?
Answer: 65%

Question: And the “Control (%) III” value (cucumber downy mildew [3]; 200 ppm)?
Answer: 72%

Question: And the “Control (%) average” value (cucumber downy mildew [3]; 400 ppm)?
Answer: 82%

Question: And the “Control (%) I” value (cucumber downy mildew [3]; 400 ppm)?
Answer: 80%

Question: And the “Control (%) II” value (cucumber downy mildew [3]; 400 ppm)?
Answer: 81%

Question: And the “Control (%) III” value (cucumber downy mildew [3]; 400 ppm)?
Answer: 86%

Question: And the EC50 against sigatoka (sigatoka)?
Answer: 2.389 ppm

Question: And the “EC50 against banana anthracnose” value (banana anthracnose)?
Answer: 2.867 ppm

Question: And the “EC50 against rice sheath blight” value (rice sheath blight)?
Answer: 0.799 ppm

Question: What about the “Control (%)” value (corn rust; 3.13 ppm) of the same molecule?
Answer: 20%

Question: And the “Control (%)” value (corn rust; 6.25 ppm)?
Answer: 60%

Question: And the “Control (%)” value (corn rust; 12.5 ppm)?
Answer: 80%

Question: What about the “Control (%)” value (corn rust; 25 ppm) of the same molecule?
Answer: 95%

Question: And the “control of corn rust” value (corn rust; 25 ppm)?
Answer: 100%

Question: And the “Control (%)” value (corn rust; 50 ppm)?
Answer: 100%

Question: And the “Control (%)” value (corn rust; 100 ppm)?
Answer: 100%

Question: What about the “Biological activity in greenhouse, corn rust” value (corn rust; 400 ppm, Table 21) of the same molecule?
Answer: 100

Question: What about the “control of corn rust” value (corn rust; 400 ppm) of the same molecule?
Answer: 100%

Question: What about the “EC50 against corn southern leaf blight” value [4] of the same molecule?
Answer: 0.035 ppm

Question: And the “Biological activity in greenhouse, wheat powdery mildew” value (wheat powdery mildew; Table 21)?
Answer: 100

Question: And the “control of wheat powdery mildew” value (wheat powdery mildew)?
Answer: 100%

Question: What about the “inhibition ratio” value (rice blast [1]; 0.3 ppm) of the same molecule?
Answer: 100%

Question: And the “inhibition ratio” value (rice blast [1]; 25 ppm)?
Answer: 100%

Question: And the “Control (%) I” value (rice blast [5]; 400 ppm)?
Answer: 69%

Question: What about the “Control (%) II” value (rice blast [5]; 400 ppm) of the same molecule?
Answer: 71%

Question: What about the “Control (%) III” value (rice blast [5]; 400 ppm) of the same molecule?
Answer: 67%

Question: What about the “Control (%) average” value (rice blast [5]; 400 ppm) of the same molecule?
Answer: 69%

Question: What about the “Control (%) I” value (rice blast [5]; 600 ppm) of the same molecule?
Answer: 77%

Question: What about the “Control (%) II” value (rice blast [5]; 600 ppm) of the same molecule?
Answer: 81%

Question: What about the “Control (%) III” value (rice blast [5]; 600 ppm) of the same molecule?
Answer: 77%

Question: What about the “Control (%) average” value (rice blast [5]; 600 ppm) of the same molecule?
Answer: 78%

Question: And the “Control (%) I” value (rice blast [5]; 800 ppm)?
Answer: 84%

Question: And the “Control (%) II” value (rice blast [5]; 800 ppm)?
Answer: 89%

Question: What about the “Control (%) III” value (rice blast [5]; 800 ppm) of the same molecule?
Answer: 88%

Question: And the “Control (%) average” value (rice blast [5]; 800 ppm)?
Answer: 87%

Question: And the “Control (%)” value (cucumber downy mildew [2]; 6.25 ppm)?
Answer: 44%

Question: And the “Control (%)” value (cucumber downy mildew [2]; 12.5 ppm)?
Answer: 66%

Question: What about the “Control (%)” value (cucumber downy mildew [2]; 25 ppm) of the same molecule?
Answer: 88%

Question: And the “control of cucumber downy mildew” value (cucumber downy mildew [2]; 25 ppm)?
Answer: 100%

Question: What about the “Control (%)” value (cucumber downy mildew [2]; 50 ppm) of the same molecule?
Answer: 96%

Question: And the “control of cucumber downy mildew” value (cucumber downy mildew [2]; 50 ppm)?
Answer: 100%

Question: What about the “Control (%)” value (cucumber downy mildew [2]; 100 ppm) of the same molecule?
Answer: 100%

Question: And the “Biological activity in greenhouse, cucumber downy mildew” value (cucumber downy mildew [2]; 400 ppm, Table 21)?
Answer: 100

Question: And the “control of cucumber downy mildew” value (cucumber downy mildew [2]; 400 ppm)?
Answer: 100%

Question: What about the “EC50 against mango anthracnose” value (mango anthracnose) of the same molecule?
Answer: 1.518 ppm

Question: And the “Control (%)” value (cucumber downy mildew [6]; 25 ppm, inoculation 3 days after treatment)?
Answer: 52%

Question: What about the “Control (%)” value (cucumber downy mildew [6]; 25 ppm, inoculation 7 days after treatment) of the same molecule?
Answer: 44%

Question: And the “Control (%)” value (cucumber downy mildew [6]; 50 ppm, inoculation 3 days after treatment)?
Answer: 74%

Question: And the “Control (%)” value (cucumber downy mildew [6]; 50 ppm, inoculation 7 days after treatment)?
Answer: 62%

Question: And the “Control (%)” value (cucumber downy mildew [6]; 100 ppm, inoculation 3 days after treatment)?
Answer: 96%

Question: And the “Control (%)” value (cucumber downy mildew [6]; 100 ppm, inoculation 7 days after treatment)?
Answer: 70%

Question: And the “Control (%)” value (cucumber downy mildew [6]; 200 ppm, inoculation 3 days after treatment)?
Answer: 100%

Question: What about the “Control (%)” value (cucumber downy mildew [6]; 200 ppm, inoculation 7 days after treatment) of the same molecule?
Answer: 74%

Question: And the “Control (%)” value (cucumber downy mildew [6]; 400 ppm, inoculation 3 days after treatment)?
Answer: 100%

Question: What about the “Control (%)” value (cucumber downy mildew [6]; 400 ppm, inoculation 7 days after treatment) of the same molecule?
Answer: 81%
